Test: in vitro
Conditions: PAMPA
Description: Permeability of compound at 12.5 uM incubated for 4 hrs by GIT PAMPA assay

Structure (SMILES): CCn1cnc2c(NCc3ccc(-c4ccoc4)nc3)nc(-c3cccnc3)nc21
- Papp at 4 h, 12.5 µM: 72.4 ×10⁻⁶ cm/s

Source: ChEMBL document CHEMBL5537138, “Identification of a novel potent CDK inhibitor degrading cyclinK with a superb activity to reverse trastuzumab-resistance in HER2-positive breast cancer in vivo” (Eur J Med Chem, 2024)
